Test results: PMC12226733, “Evolution of iGluR ligand specificity, polyamine regulation, and ion selectivity inferred from a placozoan epsilon receptor” (Communications Biology, 2025)
Like-named read-outs stand apart in the source and are kept apart here.

How the values were obtained:
GluE1αA S642Q plus D646A = type: cell-based, Trichoplax adhaerens; conditions: […]; for normalized conductance (G-V, Figure 5g), Avg: Na vs Na; for I-V current, Na vs Na, Avg of recordings: Figure 5b
GluE1αA D646A = type: cell-based, Trichoplax adhaerens; conditions: […]; for normalized conductance (G-V, Figure 5g), Avg: Na vs Na; for I-V current, Na vs Na, Avg of recordings: Figure 5b
GluE1αA wildtype = type: cell-based, Trichoplax adhaerens; conditions: […]; for normalized conductance (G-V, Figure 5g), Avg: Na vs Na; for I-V current, Na vs Na, Avg of recordings: Figure 5b
GluE1αA D646A variant = test system: GluE1αA D646A variant
From the text: (§1) The cDNA of the T. adhaerens GluE1αA receptor was cloned into the mammalian expression vector pIRES2-EGFP, using a 5’ nested primer that inserted a mammalian consensus Kozak sequence of […] (Supplementary Table 5). Several mutants/variants of this receptor where also prepared via site directed mutagenesis using standard procedures and primers listed in Supplementary Table 5. For electrophysiological comparisons, we commissioned GenScript (USA) to synthesize the cDNA of the human GluA2 […] receptor (NCBI accession number NP_001077088.2), which was cloned into the pIRES2-EGFP vector with a Kozak sequence flanking the start codon and restriction enzymes SalI and BamHI at the 5’ and 3’ ends of the cDNA, respectively. Receptor cDNAs in the various pIRES2 constructs were transfected into Chinese Hamster Ovary-K1 (CHO-K1; Sigma) cells cultured in Dulbecco’s Modified Eagle Medium Nutrient Mixture F-12 (DMEM/F12) supplemented with 10% Fetal Bovine Serum (FBS) and 1% penicillin-streptomycin at 37°C. Transfections were done with 2 μg of plasmid vector using the transfecting reagent PolyJet^TM (SignaGen Laboratories, USA) according to the manufacturer’s instructions and plated onto glass coverslips in 35 mm dishes the next day. Transfected cells were incubated at 28°C for 2 to 4 days, then coverslips were transferred to a new 60 mm dish with 5 mL of external recording solution. […] Agonists and pharmacological compounds used in this study were dissolved in corresponding external solutions. […] Patch pipettes were pulled using a P-1000 micropipette puller (Sutter, USA), from thick-walled borosilicate tubing (1.5 and 0.86 outer and inner diameter, respectively), to a resistance of between 1 and 6 megaohms.

[1] = biological target: T1, GluE1αA wildtype receptor (Trichoplax adhaerens, UniProt B3SAW0); conditions: wt
T1 sequence (B3SAW0 1-341): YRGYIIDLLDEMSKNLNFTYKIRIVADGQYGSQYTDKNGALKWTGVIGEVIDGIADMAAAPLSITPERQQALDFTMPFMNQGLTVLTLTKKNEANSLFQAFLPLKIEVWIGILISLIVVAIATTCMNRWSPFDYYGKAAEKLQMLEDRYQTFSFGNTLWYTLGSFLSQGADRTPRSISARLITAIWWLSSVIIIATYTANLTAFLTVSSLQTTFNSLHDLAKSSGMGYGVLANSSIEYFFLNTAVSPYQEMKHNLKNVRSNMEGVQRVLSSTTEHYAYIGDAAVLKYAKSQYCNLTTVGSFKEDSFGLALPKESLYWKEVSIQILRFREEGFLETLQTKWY
From the text: as §1

[Na+] [Na]
normalized conductance (G-V, Figure 5g), Avg (GluE1αA S642Q plus D646A; Vm 0.00): 0.77
normalized conductance (G-V, Figure 5g), Avg (GluE1αA S642Q plus D646A; Vm 20.00): 0.75
normalized conductance (G-V, Figure 5g), Avg (GluE1αA S642Q plus D646A; Vm 40.00): 0.71
normalized conductance (G-V, Figure 5g), Avg (GluE1αA S642Q plus D646A; Vm 60.00): 0.70
normalized conductance (G-V, Figure 5g), Avg (GluE1αA S642Q plus D646A; Vm 80.00): 0.74
normalized conductance (G-V, Figure 5g), Avg (GluE1αA S642Q plus D646A; Vm -20.00): 0.79
normalized conductance (G-V, Figure 5g), Avg (GluE1αA S642Q plus D646A; Vm -40.00): 0.87
normalized conductance (G-V, Figure 5g), Avg (GluE1αA S642Q plus D646A; Vm -60.00): 0.95
normalized conductance (G-V, Figure 5g), Avg (GluE1αA S642Q plus D646A; Vm -80.00): 1.00
I-V current, Na vs Na, Avg of recordings (GluE1αA S642Q plus D646A; Vm 0.00): -0.02
I-V current, Na vs Na, Avg of recordings (GluE1αA S642Q plus D646A; Vm 20.00): 0.15
I-V current, Na vs Na, Avg of recordings (GluE1αA S642Q plus D646A; Vm 40.00): 0.31
I-V current, Na vs Na, Avg of recordings (GluE1αA S642Q plus D646A; Vm 60.00): 0.47
I-V current, Na vs Na, Avg of recordings (GluE1αA S642Q plus D646A; Vm 80.00): 0.63
I-V current, Na vs Na, Avg of recordings (GluE1αA S642Q plus D646A; Vm -20.00): -0.18
I-V current, Na vs Na, Avg of recordings (GluE1αA S642Q plus D646A; Vm -40.00): -0.37
I-V current, Na vs Na, Avg of recordings (GluE1αA S642Q plus D646A; Vm -60.00): -0.57
I-V current, Na vs Na, Avg of recordings (GluE1αA S642Q plus D646A; Vm -80.00): -0.76
normalized conductance (G-V, Figure 5g), Avg (GluE1αA D646A; Vm 0.00): 0.81
normalized conductance (G-V, Figure 5g), Avg (GluE1αA D646A; Vm 20.00): 0.80
normalized conductance (G-V, Figure 5g), Avg (GluE1αA D646A; Vm 40.00): 0.77
normalized conductance (G-V, Figure 5g), Avg (GluE1αA D646A; Vm 60.00): 0.74
normalized conductance (G-V, Figure 5g), Avg (GluE1αA D646A; Vm 80.00): 0.78
normalized conductance (G-V, Figure 5g), Avg (GluE1αA D646A; Vm -20.00): 0.83
normalized conductance (G-V, Figure 5g), Avg (GluE1αA D646A; Vm -40.00): 0.84
normalized conductance (G-V, Figure 5g), Avg (GluE1αA D646A; Vm -60.00): 0.88
normalized conductance (G-V, Figure 5g), Avg (GluE1αA D646A; Vm -80.00): 1.00
I-V current, Na vs Na, Avg of recordings (GluE1αA D646A; Vm 0.00): -0.000461
I-V current, Na vs Na, Avg of recordings (GluE1αA D646A; Vm 20.00): 0.18
I-V current, Na vs Na, Avg of recordings (GluE1αA D646A; Vm 40.00): 0.36
I-V current, Na vs Na, Avg of recordings (GluE1αA D646A; Vm 60.00): 0.53
I-V current, Na vs Na, Avg of recordings (GluE1αA D646A; Vm 80.00): 0.69
I-V current, Na vs Na, Avg of recordings (GluE1αA D646A; Vm -20.00): -0.18
I-V current, Na vs Na, Avg of recordings (GluE1αA D646A; Vm -40.00): -0.37
I-V current, Na vs Na, Avg of recordings (GluE1αA D646A; Vm -60.00): -0.56
I-V current, Na vs Na, Avg of recordings (GluE1αA D646A; Vm -80.00): -0.76
normalized conductance (G-V, Figure 5g), Avg (GluE1αA wildtype; Vm 0.00): 0.54
normalized conductance (G-V, Figure 5g), Avg (GluE1αA wildtype; Vm 20.00): 0.50
normalized conductance (G-V, Figure 5g), Avg (GluE1αA wildtype; Vm 40.00): 0.58
normalized conductance (G-V, Figure 5g), Avg (GluE1αA wildtype; Vm 60.00): 0.65
normalized conductance (G-V, Figure 5g), Avg (GluE1αA wildtype; Vm 80.00): 0.67
normalized conductance (G-V, Figure 5g), Avg (GluE1αA wildtype; Vm -20.00): 0.70
normalized conductance (G-V, Figure 5g), Avg (GluE1αA wildtype; Vm -40.00): 0.83
normalized conductance (G-V, Figure 5g), Avg (GluE1αA wildtype; Vm -60.00): 0.93
normalized conductance (G-V, Figure 5g), Avg (GluE1αA wildtype; Vm -80.00): 1.00
I-V current, Na vs Na, Avg of recordings (GluE1αA wildtype; Vm 0.00): -0.0053
I-V current, Na vs Na, Avg of recordings (GluE1αA wildtype; Vm 20.00): 0.11
I-V current, Na vs Na, Avg of recordings (GluE1αA wildtype; Vm 40.00): 0.23
I-V current, Na vs Na, Avg of recordings (GluE1αA wildtype; Vm 60.00): 0.38
I-V current, Na vs Na, Avg of recordings (GluE1αA wildtype; Vm 80.00): 0.54
I-V current, Na vs Na, Avg of recordings (GluE1αA wildtype; Vm -20.00): -0.15
I-V current, Na vs Na, Avg of recordings (GluE1αA wildtype; Vm -40.00): -0.34
I-V current, Na vs Na, Avg of recordings (GluE1αA wildtype; Vm -60.00): -0.54
I-V current, Na vs Na, Avg of recordings (GluE1αA wildtype; Vm -80.00): -0.77

NCCCNCCCCNCCCN [spermine]
reduction in peak inward current (percent block) (GluE1αA D646A variant; 200 µM extracellular spermine): 14.0 ± 1.1%
reduction in peak inward current (GluE1αA D646A variant; 1000 µM extracellular spermine): 40.2 ± 3.4%
normalized current elicited by 3 mM glycine with co-applied spermine, Avg (GluE1αA D646A variant; spermine 200 µM extracellular): 0.8603
normalized current elicited by 3 mM glycine with co-applied spermine, Avg (GluE1αA D646A variant; spermine 1000 µM extracellular): 0.5979
normalized current elicited by 3 mM glycine with co-applied spermine, Avg ([1]; spermine 200 µM extracellular): 0.8673
normalized current elicited by 3 mM glycine with co-applied spermine, Avg ([1]; spermine 1000 µM extracellular): 0.8213
